Data published in US5426186A (priority 1993, dated 1995).
Structures can show the parent of a compound that is named as a salt.

Target: GABAa receptor
Assay: GABAa receptor binding assay, displacement of 3H-RO15-1788 from rat cortical tissue
Conditions: 0.5 nM 3H-RO15-1788, rat cortical homogenate, 4° C., nonspecific binding with 1.0 μM diazepam
Procedure: The pharmaceutical utility of compounds of this invention are indicated by the following assay for GABAa receptor activity.
Assays are carried out as described in Thomas and Tallman (J. Bio. Chem. 156: 9838-9842, J. Neurosci. 3:433-440, 1983). Rat cortical tissue is dissected and homogenized in 25 volumes (w/v) of 0.05M Tris HCl buffer (pH 7.4 at 4° C.). The tissue homogenate is centrifuged in the cold (4°) at 20,000×g for 20'. The supernatant is decanted and the pellet is rehomogenized in the same volume of buffer and again centrifuged at 20,000×g. The supernatant is decanted and the pellet is frozen at -20° C. overnight. The pellet is then thawed and rehomogenized in 25 volume (original wt/vol) of buffer and the procedure is carried out twice. The pellet is finally resuspended in 50 volumes (w/vol of 0.05M Tris HCl buffer (pH 7.4 at […]).
Incubations contain 100 μl of tissue homogenate, 100 μl of radioligand 0.5 nM (^3 H-RO15-1788 specific activity 80 Ci/mmol), drug or blocker and buffer to a total volume of 500 μl. Incubations are carried for 30 rain at 4° C. then are rapidly filtered through GFB filters to separate free and bound ligand. Filters are washed twice with fresh 0.05M Tris HCl buffer (pH 7.4 at 4° C.) and counted in a liquid scintillation counter 1.0 μM diazepam is added to some tubes to determine nonspecific binding. Data are collected in triplicate determinations, averaged and % inhibition of total specific binding is calculated. Total Specific Binding=Total-Nonspecific. In some cases, the amounts of unlabeled drugs is varied and total displacement curves of binding are carried out. Data are converted to a form for the calculation of IC50 and Hill Coefficient (nH).

Compound	IC50
CCOC(=O)C1CCc2[nH]c(=O)n3cc(-c4ccccc4F)nc3c2C1 (stereo not shown) [Compound 1, 9-Carboethoxy-2-(2-fluorophenyl)-7,8,9,10-tetrahydro-imidazo[1,2-c]-quinazolin-5(6H)-one]	7 nM
O=c1[nH]c2c(c3nc(-c4ccccc4F)cn13)CCCC2 [Compound 5, 2-(2-Fluorophenyl)-7,8,9,10-tetrahydro-imidazo[1,2-c]-quinazolin-5(6H)-one]	7 nM
O=c1[nH]c2c(c3nc(-c4ccccc4)cn13)CCC2 [Compound 12, 2-Phenyl-8,9-dihydro-7H-cyclopent[g]-imidazo[1,2-c]-pyrimidin-5(6H)-one]	400 nM
O=c1[nH]c2c(c3nc(-c4ccccc4)cn13)CCCCC2 [Compound 13, 2-Phenyl-8,9,10,11-tetrahydro-7H-cyclohept[g]-imidazo[1,2-c]pyrimidin-5(6H)-one]	800 nM
CC(C)OC(=O)C1CCc2[nH]c(=O)n3cc(-c4ccccc4F)nc3c2C1 (stereo not shown) [Compound 14, 9-Carboisopropoxy-2-(2-fluorophenyl)-7,8,9,10-tetrahydro-imidazo[1,2-c]-quinazolin-5(6H)-one]	10 nM
CN(C)C(=O)C1CCc2[nH]c(=O)n3cc(-c4ccccc4F)nc3c2C1 (stereo not shown) [Compound 18, 9-(N,N-Dimethylcarbamyl)-2-(2-fluorophenyl)-7,8,9,10-tetrahydro-imidazo[1,2-c]-quinazolin-5(6H)-one]	10 nM
CN(C)CC1CCc2[nH]c(=O)n3cc(-c4ccccc4F)nc3c2C1 (stereo not shown) [Compound 24, 9-(N,N-Dimethylaminomethyl)-2-(2-fluoropenyl)-7,8,9,10-tetrahydro-imidazo[1,2-c]-quinazolin-5(6H)-one monohydrochloride]	30 nM
CC(C)(C)OC(=O)NC1CCc2[nH]c(=O)n3cc(-c4ccccc4F)nc3c2C1 (stereo not shown) [Compound 28, 9-(t-Butoxycarbonylamino)-2-(2-fluorophenyl)-7,8,9,10-tetrahydro-imidazo[1,2-c]-quinazolin-5(6H)-one]	150 nM
Fc1ccccc1-c1cn2c(NCc3ccccc3)nc3c(c2n1)CCCC3 [Compound 31, 5-(N-benzylamino)-2-(2-fluorophenyl)-7,8,9,10-tetrahydro-imidazo[1,2-c]-quinazoline]	2000 nM
Nc1nc2c(c3nc(-c4ccccc4F)cn13)CCCC2 [Compound 33, 5-Amino-2-(2-fluorophenyl)-7,8,9,10-tetrahydro-imidazo[1,2-c]-quinazoline]	100 nM
CCOc1nc2c(c3nc(-c4ccccc4F)cn13)CCCC2 [Compound 39, 5-Ethoxy-2-(2-fluorophenyl)-7,8,9,10-tetrahydro-imidazo[1,2-c]-quinazoline]	5000 nM
COc1ccc(-c2cn3c(=O)[nH]c4c(c3n2)CCCC4)cc1 [Compound 50, 2-(4-Methoxyphenyl)-7,8,9,10-tetrahydro-imidazo[1,2-c]-quinazolin-5(6H)-one]	50 nM
COc1ccc(-c2cn3c(=O)[nH]c4c(c3n2)CCCC4)c(F)c1 [Compound 51, 2-(2-Fluoro-4-methoxyphenyl)-7,8,9,10-tetrahydro-imidazo[1,2-c]-quinazolin-5(6H)-one]	3 nM
